Assays:
[1] = distribution coefficient log P (octanol/water); format: physicochemical; settings: raw material of malodor suppressant system
Excerpt: In the fields of organic and medicinal chemistry, a distribution (P) coefficient is the ratio of concentrations of a compound in the two phases of a mixture of two immiscible solvents at equilibrium. […] One of the solvents chosen is water while the second is octanol. […] The partition coefficient is the ratio of concentrations of un-ionized compound between the two solutions. The logarithm of the ratio of the concentrations of the un-ionized solute in the solvents is called log P:
The log P (octanol/water) is referred hereinafter as “log P”, unless otherwise specified.

[2] = density of malodor suppressant; format: physicochemical; settings: 23° C., 1.013 bar
Protocol: All densities relate to a temperature of 23° C. and a pressure of 1.013 bar. Density measurements are typically performed via determining the weight and the volume of the compound to be measured, or according to any other processes known to the skilled person.

[3] = Test Procedure 2: panel test rating thiol malodor of permanent shaping premix mixed with malodor suppressant system; settings: scale 0 to 5 (0=no thiol smell, 5=harsh thiol smell); 5 panelists; premix + 0.7 wt.-% suppressant system; same rating immediately and 25 min after mixing
Protocol: A […] performed with 5 panelists with trained expertise in the classification of thiol malodour. The panelists received a mixture of the permanent shaping premix and 0.7 wt.-% of one malodor suppressant system, as described above (stirred by a single operator for all tests). Immediately and 25 min after mixing, the panelists were asked to rate the thiol malodor according to a scale of 0 to 5 (0=no thiol smell, 5=harsh thiol smell), the mixture being passed from panelist to panelist with an additional stirring for each of the panelists. The same odor rating is obtained immediately after mixing and 25 min after mixing.

logP ([1]; octanol/water)	density [2] [g/mL]	log P (octanol/water) [1]	Compound	Odor (thiol malodor rating) [3]	logP [1]
	0.971	5.79	CC1COC(C)(c2ccc3c(c2)C(C)(C)CCC3(C)C)O1 (centres unmarked) [S5, Okoumal]	3	
	1.129		O=C(OCc1ccccc1)c1ccccc1 [S6, Benzyl benzoate]	3	
	1.01	4.90	Operanide [S4]	2	

Second part, the compound before the results:

Compound	logP ([1]; octanol/water)	density [2] [g/mL]	log P (octanol/water) [1]	Odor (thiol malodor rating) [3]	logP [1]
CCCCCCCCCCCCCC(=O)OC(C)C [S1, isopropylmyristate]	7.41	0.864		3	
O=C1CCCCCCCCC/C=C/CCCO1 [S2, Habanolide]		0.901	4.77	4	
CC1COCc2cc3c(cc21)C(C)(C)C(C)C3(C)C (centres unmarked) [S3, Galaxolide]		0.946		1-2	5.93

— patent publication US20180071188A1, “COMPOSITION FOR THE PERMANENT DEFORMATION OF HAIR HAVING REDUCED ODOUR” (The Procter & Gamble Company, priority 2016, published 2018)
